Active and inactive are the calls of the source. No cut-off for these calls is given here.
What was measured:
[1] = molecular target: Nonstructural protein 5 (Dengue virus, UniProt V5TFZ2); experiment: Inhibition of DENV3 2'-O-MTase assessed as reduction in [3H]AdoMet transfer on to capped GpppAC4 RNA after 30 mins by microbeta liquid scintillation counting method; design: species or system dengue virus type 3
[2] = molecular target: Genome polyprotein (Zika virus, UniProt Q32ZE1); experiment: Inhibition of ZIKV 2'-O-MTase assessed as reduction in [3H]AdoMet transfer on to capped GpppAC4 RNA after 30 mins by microbeta liquid scintillation counting method
[3] = molecular target: Genome polyprotein (West Nile virus, UniProt P06935); experiment: Inhibition of WNV 2'-O-MTase assessed as reduction in [3H]AdoMet transfer on to capped GpppAC4 RNA after 30 mins by microbeta liquid scintillation counting method
[4] = system: dengue virus type 2; experiment: Antiviral activity against DENV2 CNR 25679 infected in African green monkey Vero E6 cells assessed as reduction in viral replication up to 20 uM by RT-PCR analysis; format: functional, organism-based; details: Vero C1008
[5] = system: Zika virus; experiment: Antiviral activity against ZIKV H/PF/2013 infected in African green monkey Vero E6 cells assessed as reduction in viral replication up to 20 uM by RT-PCR analysis; format: functional, organism-based; details: Vero C1008
[6] = system: Vero C1008; experiment: Cytotoxicity against African green monkey Vero E6 cells up to 100 uM; format: cell-based; details: chlorocebus sabaeus
[7] = Cytotoxicity against African green monkey Vero E6 cells; format: cell-based; details: chlorocebus sabaeus, Vero E6 cells (Vero C1008)

Chain of Genome polyprotein (West Nile virus, UniProt P06935) (P06935 2526-3430 limits assumed): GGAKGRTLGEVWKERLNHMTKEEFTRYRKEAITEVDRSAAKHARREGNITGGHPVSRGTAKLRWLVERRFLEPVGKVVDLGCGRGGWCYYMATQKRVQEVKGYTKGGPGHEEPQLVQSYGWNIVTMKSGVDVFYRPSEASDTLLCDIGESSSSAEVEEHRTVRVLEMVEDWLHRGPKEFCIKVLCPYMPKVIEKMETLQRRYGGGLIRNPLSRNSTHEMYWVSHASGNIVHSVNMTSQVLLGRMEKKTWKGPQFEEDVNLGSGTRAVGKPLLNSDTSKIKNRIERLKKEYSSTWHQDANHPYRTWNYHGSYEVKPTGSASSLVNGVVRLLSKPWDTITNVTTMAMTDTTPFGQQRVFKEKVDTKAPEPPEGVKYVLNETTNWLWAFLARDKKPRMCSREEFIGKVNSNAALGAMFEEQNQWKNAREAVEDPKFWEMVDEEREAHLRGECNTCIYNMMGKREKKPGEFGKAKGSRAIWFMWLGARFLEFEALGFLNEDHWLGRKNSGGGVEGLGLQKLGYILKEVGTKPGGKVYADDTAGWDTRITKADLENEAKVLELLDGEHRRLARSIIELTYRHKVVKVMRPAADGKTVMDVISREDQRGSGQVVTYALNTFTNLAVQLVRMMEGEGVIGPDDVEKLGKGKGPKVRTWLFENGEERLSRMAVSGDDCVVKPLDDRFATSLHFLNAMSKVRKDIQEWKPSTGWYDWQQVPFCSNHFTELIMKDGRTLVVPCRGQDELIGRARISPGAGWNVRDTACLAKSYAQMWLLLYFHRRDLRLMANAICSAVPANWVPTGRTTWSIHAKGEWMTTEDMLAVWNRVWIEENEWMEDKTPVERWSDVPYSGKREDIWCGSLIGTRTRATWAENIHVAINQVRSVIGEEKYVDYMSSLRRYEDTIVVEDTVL
Chain of Nonstructural protein 5 (V5TFZ2 whole entry): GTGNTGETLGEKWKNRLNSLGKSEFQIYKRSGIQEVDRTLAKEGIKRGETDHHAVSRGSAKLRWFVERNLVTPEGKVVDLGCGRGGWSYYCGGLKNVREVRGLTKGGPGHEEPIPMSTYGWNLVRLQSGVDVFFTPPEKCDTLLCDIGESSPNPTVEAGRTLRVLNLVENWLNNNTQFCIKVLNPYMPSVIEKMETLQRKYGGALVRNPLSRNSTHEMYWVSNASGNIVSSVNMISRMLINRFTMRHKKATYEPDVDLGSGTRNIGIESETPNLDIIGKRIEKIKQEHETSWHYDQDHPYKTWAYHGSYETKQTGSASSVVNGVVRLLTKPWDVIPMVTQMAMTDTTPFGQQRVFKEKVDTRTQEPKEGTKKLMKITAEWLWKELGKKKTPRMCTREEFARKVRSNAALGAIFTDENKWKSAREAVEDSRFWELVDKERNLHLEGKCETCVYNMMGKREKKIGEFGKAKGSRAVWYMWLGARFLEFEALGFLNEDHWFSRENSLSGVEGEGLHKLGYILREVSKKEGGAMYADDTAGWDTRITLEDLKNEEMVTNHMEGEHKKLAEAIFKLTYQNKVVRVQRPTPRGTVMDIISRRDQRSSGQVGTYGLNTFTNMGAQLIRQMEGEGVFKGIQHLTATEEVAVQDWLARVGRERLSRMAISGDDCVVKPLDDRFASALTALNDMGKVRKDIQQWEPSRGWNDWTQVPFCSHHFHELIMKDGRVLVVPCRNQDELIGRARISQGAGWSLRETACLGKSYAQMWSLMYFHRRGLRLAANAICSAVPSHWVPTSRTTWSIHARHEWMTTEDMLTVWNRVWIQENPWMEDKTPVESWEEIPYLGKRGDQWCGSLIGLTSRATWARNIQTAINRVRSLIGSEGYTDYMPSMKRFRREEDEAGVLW
Chain of Genome polyprotein (Zika virus, UniProt Q32ZE1) (Q32ZE1 2517-3419 limits assumed): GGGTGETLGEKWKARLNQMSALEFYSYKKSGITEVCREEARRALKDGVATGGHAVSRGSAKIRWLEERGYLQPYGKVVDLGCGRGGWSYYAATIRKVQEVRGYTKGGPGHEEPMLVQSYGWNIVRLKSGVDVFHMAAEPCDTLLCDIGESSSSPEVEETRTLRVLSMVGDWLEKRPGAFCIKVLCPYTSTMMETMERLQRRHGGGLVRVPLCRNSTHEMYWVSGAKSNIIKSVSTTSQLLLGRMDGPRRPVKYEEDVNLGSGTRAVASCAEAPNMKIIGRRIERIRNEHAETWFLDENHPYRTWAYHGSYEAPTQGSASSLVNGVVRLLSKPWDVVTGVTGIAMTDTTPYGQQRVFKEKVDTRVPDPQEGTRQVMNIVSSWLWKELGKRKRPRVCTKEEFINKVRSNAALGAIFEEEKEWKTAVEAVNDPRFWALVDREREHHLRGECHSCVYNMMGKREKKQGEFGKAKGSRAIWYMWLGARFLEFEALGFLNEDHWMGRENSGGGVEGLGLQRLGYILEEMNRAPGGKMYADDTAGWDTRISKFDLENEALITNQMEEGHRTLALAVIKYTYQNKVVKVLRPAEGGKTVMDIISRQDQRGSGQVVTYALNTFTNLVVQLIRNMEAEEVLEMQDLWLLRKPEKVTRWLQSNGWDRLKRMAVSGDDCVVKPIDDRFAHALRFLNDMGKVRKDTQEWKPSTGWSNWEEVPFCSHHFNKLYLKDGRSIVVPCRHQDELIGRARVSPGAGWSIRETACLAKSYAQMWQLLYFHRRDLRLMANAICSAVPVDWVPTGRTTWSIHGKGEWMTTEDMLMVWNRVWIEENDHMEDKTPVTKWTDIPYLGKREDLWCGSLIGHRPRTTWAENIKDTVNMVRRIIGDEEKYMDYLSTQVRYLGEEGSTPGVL

SMILES | IC50 [1] | IC50 [2] | IC50 [3] | Activity [4] | Activity [5] | Activity [6] | CC50 [7]
Nc1cc(C(F)(F)F)ccc1NC(=O)Nc1ccc(S(=O)(=O)Oc2cccc(CC(=O)O)c2)cc1 | 276 µM | 111 µM |  |  |  |  | 
CN1CCC(CNS(=O)(=O)c2ccc(NC(=O)Nc3ccc(C(F)(F)F)cc3N)cc2)C1 (stereo not drawn) | 400 µM | 400 µM |  |  |  |  | 
Nc1cc(Cl)ccc1NC(=O)Nc1cccc(S(=O)(=O)Nc2ccc(C(=O)O)cc2)c1 | 452 µM | 221 µM | 51 to 299 µM |  |  |  | 
Nc1cc(C(F)(F)F)ccc1NC(=O)Nc1cccc(S(=O)(=O)NCc2cccc(C(=O)O)c2)c1 | 304 µM | 95 µM |  |  |  |  | 
COC(=O)CCCNS(=O)(=O)c1cccc(NC(=O)Nc2ccc(C(F)(F)F)cc2[N+](=O)[O-])c1 | 400 µM | 400 µM |  |  |  |  | 
Nc1cc(C(F)(F)F)ccc1NC(=O)Nc1cccc(S(=O)(=O)Nc2ccc(C(=O)O)cc2)c1 | 91 µM | 24 µM | 51 to 299 µM |  |  |  | 
Nc1cc(C(F)(F)F)ccc1NC(=O)Nc1ccc(S(=O)(=O)NCc2cccc(C(=O)O)c2)cc1 | 174 µM | 61 µM |  | inactive | inactive | Non-Toxic | 
Nc1cc(Cl)ccc1NC(=O)Nc1cccc(S(=O)(=O)Oc2ccc(C(=O)O)cc2)c1 | 369 µM | 33 µM | 51 to 299 µM |  |  |  | 
O=C(O)Cc1cccc(OS(=O)(=O)c2ccc(NC(=O)Nc3ccc(C(F)(F)F)cc3[N+](=O)[O-])cc2)c1 | 26 µM | 28 µM |  | inactive | inactive |  | 37.5 µM
CN1CCC(CNS(=O)(=O)c2ccc(NC(=O)Nc3ccc(C(F)(F)F)cc3[N+](=O)[O-])cc2)C1 (stereo not drawn) | 400 µM | 400 µM |  |  |  |  | 
O=C(Nc1cccc(S(=O)(=O)NCc2cccc(C(=O)O)c2)c1)Nc1ccc(C(F)(F)F)cc1[N+](=O)[O-] | 400 µM | 136 µM |  |  |  |  | 
Nc1cc(C(F)(F)F)ccc1NC(=O)Nc1cccc(S(=O)(=O)Nc2ccc(CC(=O)O)cc2)c1 | 144 µM | 135 µM |  |  |  |  | 
Nc1cc(Cl)ccc1NC(=O)Nc1ccc(S(=O)(=O)Oc2ccc(C(=O)O)cc2)cc1 | 368 µM | 31 µM | 51 to 299 µM |  |  |  | 
O=C(O)Cc1ccc(NS(=O)(=O)c2cccc(NC(=O)Nc3ccc(C(F)(F)F)cc3[N+](=O)[O-])c2)cc1 | 181 µM | 185 µM |  |  |  |  | 
O=C(Nc1ccc(S(=O)(=O)NCc2cccc(C(=O)O)c2)cc1)Nc1ccc(C(F)(F)F)cc1[N+](=O)[O-] | 145 µM | 83 µM |  | inactive | inactive |  | 70 µM
Nc1cc(C(F)(F)F)ccc1NC(=O)Nc1cccc(S(=O)(=O)NCc2ccc(C(=O)O)cc2)c1 | 366 µM | 122 µM |  |  |  |  | 
Nc1cc(C(F)(F)F)ccc1NC(=O)Nc1ccc(S(=O)(=O)Nc2ccc(C(=O)O)cc2)cc1 | 110 µM | 67 µM | 51 to 299 µM |  |  |  | 
Nc1cc(Cl)ccc1NC(=O)Nc1ccc(S(=O)(=O)Nc2ccc(C(=O)O)cc2)cc1 | 435 µM | 87 µM | 51 to 299 µM |  |  |  | 
Nc1cc(C(F)(F)F)ccc1NC(=O)Nc1ccc(S(=O)(=O)Oc2cccc(CC(=O)Oc3cccc(CC(=O)O)c3)c2)cc1 | 24 µM | 19 µM |  | inactive | inactive | Non-Toxic | 
Nc1cc(C(F)(F)F)ccc1NC(=O)Nc1cccc(S(=O)(=O)NCCCC(=O)O)c1 | 342 µM | 132 µM |  |  |  |  | 
